Earlier results on one compound are cited in article PMC10574185, “Encapsulation and Biological Activity of Hesperetin Derivatives with HP-β-CD” (Molecules, 2023).

Values after ≈ are worked out from the molar mass of the structure shown.

What is called MIC is the least concentration at which growth counts as inhibited.

Common to all, as to conditions: cited from earlier work
The test system of one data set is Bacillus cereus. The arrangement: method as in PMID 36009336.
For a further data set, the system named is Escherichia coli. The arrangement: method as in PMID 36009336.
The next data set relates to prostate cancer cells.

For the compound `COc1ccc(C2CC(=O)c3c(O)cc(O)cc3O2)cc1O` (stereo not shown) [Hesperetin, 3′,5,7-Trihydroxy-4′-methoxyflavanone], the MIC in the data set on Bacillus cereus is 250 µg/mL (≈ 827 µM). In addition, the MIC in the data set with Escherichia coli is 500 µg/mL (≈ 1650 µM). In the data set with prostate cancer cells, the “decrease in the cytotoxicity of cabazitaxel” value is 13.1 fold and the “decrease in the cytotoxicity of docetaxel” value is 9.8 fold.
